From US20260000079A1, “COMPOSITIONS AND METHODS FOR MODULATING IMMUNITY IN PLANTS” (BOYCE THOMPSON INSTITUTE FOR PLANT RESEARCH, INC., priority 2019, published 2026)

How the values were obtained:
Meloidogyne incognita = assay: Arabidopsis nematode infection assay (root galls); assay type: in vivo; conditions: 48 hours root pretreatment
Protocol: (§1) FIG. 4A provides a schematic of the experimental designs for assessing activation of defense pathways and resistance to nematodes and bacteria. […] Bacterial growth was assayed 3 days post inoculation. Data are averages±s.d. (n=17). […] Arabidopsis seedlings were treated with buffer or the indicated concentrations of ascr #18 for 48 hours before inoculation with approximately 300 freshly hatched M. incognita J2 larvae. The numbers of root galls of infected plants were counted 6 weeks post inoculation. Data are averages±s.d. (n≥15). […] Arabidopsis seedlings were treated with the indicated concentrations of ascr #18 for 48 hours before transfer into 12-well plates containing Pluronic® F-127 gel with ˜200 freshly hatched M. incognita J2 larvae. Larvae touching root tips (FIG. 4D) or the whole area of roots (FIG. 4E) were counted at 6 hours post seedling transfer. Data are average±s.d. (n=12). […] Transcript levels were determined by qRT-PCR and plotted as relative fold-change compared to mock treated plants. Data are averages±s.d (n≥6). *P≤0.05; **P≤0.005; ***P≤0.0005; two-tailed t-test.
For Arabidopsis nematode infection assays, Meloidogyne incognita was propagated and hatched as described (Manosalva, et al. (2015) Nat. Commun. 6:7795). Briefly, M. incognita were propagated on tomato (Solanum lycopersicum cv. Tiny Tim). M. incognita eggs were then isolated from egg masses on tomato roots with 0.5% sodium hypochlorite and rinsed with water on a 25-μm sieve. Collected nematode eggs were treated in a solution of 0.02% sodium azide for 20 minutes, and then hatched over water containing 1.5 mg/mL gentamycin sulfate and 0.05 mg/mL nystatin at room temperature on a Baermann pan for three days. Hatched second-stage juveniles (J2) were collected, surface sterilized with an aqueous solution of mercuric chloride (0.004%) and sodium azide (0.004%) for 10 minutes, and rinsed three times with sterile distilled water. […] Galls for M. incognita were counted under a microscope six weeks after inoculation. […]

[1] = tested on: defense-response genes in Arabidopsis leaves; assay: qRT-PCR of defense-response genes in Arabidopsis leaves after root treatment; assay type: in vivo, Arabidopsis thaliana; conditions: leaves 24 hours after root treatment with 1 μM
Protocol: as §1
For each replicate, total RNA from Arabidopsis leaves were isolated from a pool of one leaf from each of three plants. For the seedling RNA analyses, Arabidopsis roots were collected from 30-40 seedlings for each replicates. Total RNA was isolated using Qiagen RNeasy® Plant Mini Kit (Qiagen) according to the manufacturer's instructions. DNAse treatment was done using DNA-Free™ Kit (Ambion) following the manufacturer's instructions. […]
For quantitative real-time PCR (qRT-PCR), transcripts were amplified using SYBR® Premix Ex-Taq™ (Takara) from 2.5 μL of 5×-diluted cDNA in a total 20 μL reaction using 0.1 μL of 100 μM gene-specific primers. […] The relative fold change was calculated according to the 2-ΔΔCt method (Manosalva, et al. (2015) Nat. Commun. 6:7795; Floss, et al. (2013) Proc. Natl. Acad. Sci. 110: E5025-34). […]
Next, it was determined whether differences in activation of defense signaling in wildtype and acx1acx5 plants underlie the observed differences in resistance to nematodes. […]

[2] = tested on: MAPK, jasmonic acid and salicylic acid signaling pathways; conditions: Manosalva, et al. (2015); cited from earlier work
[3] = tested on: bacteria, viruses, fungi, oomycetes, and nematodes; conditions: Manosalva, et al. (2015); cited from earlier work
[4] = tested on: entomopathogenic nematode species; conditions: Kaplan, et al. (2012); cited from earlier work

Compound	protection against M. incognita (root galls 6 weeks post inoculation) (Meloidogyne incognita; acx1acx5 mutant)	protection against M. incognita (root galls 6 weeks post inoculation) (Meloidogyne incognita; wildtype, 10 nM)	protection against M. incognita (root galls 6 weeks post inoculation) (Meloidogyne incognita; wildtype, 50 nM)	induction of MAPK-related FRK1 ([1]; acx1acx5 vs wildtype)	induction of jasmonic acid signaling genes (PDF1.2, AOS, LOX2) ([1]; wildtype vs acx1acx5)	induction of salicylic acid signaling genes (PR-1, PR-4) ([1]; wildtype vs acx1acx5)	activation of defense signaling pathways in monocots and dicots [2]	resistance of plants to pathogens [3]	dispersal behavior [4]
CC1O[C@@H](O[C@@H](C)CCCCCCCCC(=O)O)C(O)C[C@H]1O (stereo in doubt) [ascr #18, (10R)-(3′R,5′R-dihydroxy-6′S-methyl-(2H)-tetrahydropyran-2-yloxy)-undecanoic acid]	no effect	significant protection	significant protection	slightly weaker in the mutant	to similar extents	to similar extents	activation of conserved defense signaling pathways	enhance resistance of monocot and dicot plants to a wide range of pathogens	
C[C@H](CCC(=O)O)O[C@@H]1O[C@@H](C)[C@H](O)C[C@H]1O [ascr #9]									mediate dispersal behavior
